Experimental data taken from publication PMC10135567, “New Indole-3-Propionic Acid and 5-Methoxy-Indole Carboxylic Acid Derived Hydrazone Hybrids as Multifunctional Neuroprotectors” (Antioxidants, 2023).

Tests used:
[1] = tested on: SH-SY5Y cells; assay: H2O2-induced oxidative stress model in SH-SY5Y cells; type: cell-based, human; details: H2O2 1 mM 15 min
Method: The SH-SY5Y cells were seeded in 96-well plates at a density of 3.5 × 10^4/well in 100 μL of RPMI supplemented with FBS for 24 h. Then, the cell medium was aspirated, and the cells were treated with different concentrations of the compounds—1, 10, and 50 µM for 90 min. Afterwards, the SH-SY5Y cells were washed with PBS and were exposed to hydrogen peroxide (H2O2) (1 mM in PBS for 15 min) to induce oxidative stress. All well contents were replaced by fresh culture medium and incubated for 24 h. MTT assay was used to evaluate the amount of attached viable cells. Negative controls (cells without H2O2 treatment) were considered as 100% protection and H2O2-treated cells as 0% protection.
To evaluate the possible neuroprotective effects of the compounds, the SH-SY5Y cells were pre-treated with different concentrations (1, 10, 50 µM) for 90 min and then exposed to H2O2 (1 mM) for 15 min. The cell viability of all compounds was measured to verify their protective effect against the toxicity of hydrogen peroxide.

[2] = tested on: isolated rat-brain synaptosomes; assay: Synaptosomal viability (MTT), substances administered alone; details: 100 µM
Method: Preparation of the synaptosomes was carried out by multiple centrifugations using the Percoll gradient. Homogenization of the brains was performed in 10 volumes of cold buffer 1, which contained 5 mM HEPES and 0.32 M sucrose (pH = 7.4), followed by centrifugation at different speeds. For preparation of the gradient, the synaptosomes were isolated by Percoll reagent. Synaptosomes were resuspended and incubated in buffer 2, which contained 290 mM NaCl, 0.95 mM MgCl2x6H2O, 10 mM KCl, 2.4 mM CaCl2xH2O, 2.1 mM NaH2PO4, 44 mM HEPES, and 13 mM D-glucose. Incubations were performed in a 5% CO2 + 95% O2 atmosphere. The method of Lowry et al., using bovine serum albumin as a standard content, was applied for determination of synaptosomal protein [51].
Synaptosomal viability was monitored based on a (3-(4,5)-dimethylthiazol-2-yl)-2,5-diphenyl tetrazolium bromide) assay. After incubation with the compounds, synaptosomes were treated with 0.5 mg/mL solution of (3-(4,5)-dimethylthiazol-2-yl)-2,5-diphenyl tetrazolium bromide) for 10 min at […]. Then, the synaptosomes were centrifuged twice at 15,000× g for 1 min. The resulting formazan crystals were dissolved in DMSO (dimethyl sulfoxide), and the extinction was determined by spectrophotometric measurements at 580–660 nm. […]

[3] = tested on: bEnd3 cells; assay: MTT cell viability assay (cytotoxicity), bEnd3; type: cell-based, mouse; details: 24 h, 1–500 µM
Outline: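 bEnd3 mouse brain endothelial cells (0.7 × 10^4/well, 24 h adherence) were exposed to compounds at 1–500 μM for 24 h, with 0.5% DMSO as solvent control. Viability was read by MTT reduction (0.5 mg/mL, 3 h, 37 °C) as absorbance at 570 nm.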

Molecule | protective effect: increased cell viability of SH-SY5Y vs. H2O2 group ([1]; 1 µM pre-treatment 90 min) [%] | protective effect: increased cell viability of SH-SY5Y vs. H2O2 group ([1]; 10 µM pre-treatment 90 min) [%] | protective effect: increased cell viability of SH-SY5Y vs. H2O2 group ([1]; 50 µM pre-treatment 90 min) [%] | reduction of synaptosomal viability (SV) vs. non-treated synaptosomes [2] [%] | IC50 [3] [µM]
COc1ccc2[nH]cc(CCNC(C)=O)c2c1 [Melatonin] | 19 | 42 | 64 | 20 | –
N′-(4-Hydroxy-2-methoxybenzylidene)-3-(1H-indol-3-yl)propanehydrazide [Compound 3e] | – | – | – | – | 85.5
